Experimental data from patent US5436229A, “Bisulfite adducts of arginine aldehydes” (Eli Lilly and Company, priority 1994, dated 1995).

Assays:
human thrombin = human thrombin (Homo sapiens, UniProt P00734); test: Thrombin amidase inhibition (Kass), chromogenic substrate; assay type: biochemical
In short: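 Kass, in liter per mole, was averaged over several compound concentrations, using free thrombin from a rate standard curve and free inhibitor as added minus bound. Hydrolysis of chromogenic substrate (0.25 mg/ml solution) was monitored at 405 nm with human thrombin (8 NIH units/ml solution) in Tris-NaCl buffer pH 7.4, compound in 50% aqueous methanol.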

Bovine trypsin = target: T1, Bovine trypsin (Bos taurus, UniProt P00760); test: Serine protease inhibition (Kass), trypsin; assay type: biochemical
T1 construct: Bovine trypsin is purchased from Worthington Biochemicals; purchased Worthington Biochemicals, Freehold, N.J
T1 sequence (P00760 24-246): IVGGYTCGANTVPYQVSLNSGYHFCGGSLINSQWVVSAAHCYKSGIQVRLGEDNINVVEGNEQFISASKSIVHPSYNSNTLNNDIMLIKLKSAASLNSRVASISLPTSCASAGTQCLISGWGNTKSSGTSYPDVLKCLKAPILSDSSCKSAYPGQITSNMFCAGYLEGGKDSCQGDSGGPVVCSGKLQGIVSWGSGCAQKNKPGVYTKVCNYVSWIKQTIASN
In short: (§1)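 Chromogenic p-nitroanilide substrate assays run as for human thrombin; trypsin with N-Benzoyl-Phe-Val-Arg-p-nitroanilide, human factor Xa with N-Benzoyl-Ile-Glu-Gly-Arg-p-nitroanilide. Values are association constants (Kass).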

Human plasmin = target: T2, Human plasmin (Homo sapiens, UniProt P00747); test: Serine protease inhibition (Kass), plasmin; assay type: biochemical
T2 construct: Human plasmin is purchased from Boehringer Mannheim; purchased Boehringer Mannheim, Indianapolis, Ind
T2 sequence (P00747 581-810 limits assumed): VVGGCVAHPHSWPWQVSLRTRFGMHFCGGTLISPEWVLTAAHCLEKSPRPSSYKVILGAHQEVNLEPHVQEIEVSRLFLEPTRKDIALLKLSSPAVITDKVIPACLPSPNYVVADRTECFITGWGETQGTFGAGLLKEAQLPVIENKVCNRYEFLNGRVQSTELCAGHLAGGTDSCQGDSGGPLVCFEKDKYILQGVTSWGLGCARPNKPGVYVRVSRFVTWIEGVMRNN
T2 sequence (P00747 97-580 partner limits assumed): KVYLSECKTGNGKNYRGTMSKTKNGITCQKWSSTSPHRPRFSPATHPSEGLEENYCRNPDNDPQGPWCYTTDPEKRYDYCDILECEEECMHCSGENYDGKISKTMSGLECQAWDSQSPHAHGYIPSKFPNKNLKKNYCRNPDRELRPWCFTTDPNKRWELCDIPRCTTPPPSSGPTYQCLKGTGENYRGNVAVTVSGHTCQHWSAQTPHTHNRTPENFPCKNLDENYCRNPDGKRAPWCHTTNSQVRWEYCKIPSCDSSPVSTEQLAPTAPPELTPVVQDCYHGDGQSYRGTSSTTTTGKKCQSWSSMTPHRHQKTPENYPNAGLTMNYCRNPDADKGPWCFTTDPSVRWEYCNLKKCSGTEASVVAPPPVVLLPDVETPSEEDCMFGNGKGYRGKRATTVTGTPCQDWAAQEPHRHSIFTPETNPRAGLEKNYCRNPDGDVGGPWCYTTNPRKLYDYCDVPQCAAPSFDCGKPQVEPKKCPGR
In short: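 Kass values come from the thrombin chromogenic procedure applied to fibrinolytic proteases. t-PA (nt-PA single chain, or mt-PA6) paired with substrate H-D-Ile-Pro-Arg-p-nitroanilide; human plasmin paired with H-D-Val-Leu-Lys-p-nitroanilide.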

[1] = target: T3, tissue plasminogen activator (t-PA) (Homo sapiens, UniProt P00750); test: Serine protease inhibition (Kass), t-PA; assay type: biochemical
T3 construct: purchased American Diagnostica, Greenwich, Conn
T3 sequence (P00750 36-562): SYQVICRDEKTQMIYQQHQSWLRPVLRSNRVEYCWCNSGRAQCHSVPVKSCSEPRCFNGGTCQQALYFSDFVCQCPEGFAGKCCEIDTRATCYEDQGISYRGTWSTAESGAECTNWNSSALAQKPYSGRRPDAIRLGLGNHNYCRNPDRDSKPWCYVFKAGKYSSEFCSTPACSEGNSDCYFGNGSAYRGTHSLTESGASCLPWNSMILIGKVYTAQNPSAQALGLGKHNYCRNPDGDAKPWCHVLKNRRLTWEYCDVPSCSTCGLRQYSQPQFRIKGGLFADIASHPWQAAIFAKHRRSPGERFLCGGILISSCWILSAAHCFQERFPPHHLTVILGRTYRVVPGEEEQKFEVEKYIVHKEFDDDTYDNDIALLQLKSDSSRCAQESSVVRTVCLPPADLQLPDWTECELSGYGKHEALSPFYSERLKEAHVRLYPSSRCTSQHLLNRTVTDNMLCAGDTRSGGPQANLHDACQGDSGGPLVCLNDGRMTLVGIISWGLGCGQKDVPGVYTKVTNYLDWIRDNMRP

[2] = Index of Bioavailability (plasma TT AUC, oral vs i.v.); assay type: in vivo; conditions: rats, oral vs i.v. bolus
Source text: Assays are done in duplicate and averaged.
Each sample population represents alternating sequential time points.

factor Xa = target: T4, factor Xa (Homo sapiens, UniProt P00742); test: Serine protease inhibition (Kass), factor Xa; assay type: biochemical
T4 construct: Human factors X, Xa, IXa, XIa, and XIIa are purchased from Enzyme Research Laboratories; purchased Enzyme Research Laboratories, South Bend, Ind
T4 sequence (P00742 235-488 limits assumed): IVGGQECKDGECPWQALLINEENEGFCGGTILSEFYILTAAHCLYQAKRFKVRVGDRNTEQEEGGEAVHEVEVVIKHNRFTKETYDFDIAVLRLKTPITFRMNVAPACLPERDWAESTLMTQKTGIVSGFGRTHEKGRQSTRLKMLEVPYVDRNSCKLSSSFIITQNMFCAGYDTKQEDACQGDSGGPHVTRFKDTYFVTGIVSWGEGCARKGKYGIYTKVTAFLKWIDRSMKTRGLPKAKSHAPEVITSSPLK
T4 sequence (P00742 41-179 partner limits assumed): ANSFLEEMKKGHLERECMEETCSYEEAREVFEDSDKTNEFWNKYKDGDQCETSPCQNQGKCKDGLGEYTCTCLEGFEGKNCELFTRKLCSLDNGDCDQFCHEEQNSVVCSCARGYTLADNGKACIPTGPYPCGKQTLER
In short: as §1

human plasma [3] = test: Human plasma anticoagulation, thrombin time (TT); assay type: biochemical
In short: (§2)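 Compounds added across a wide concentration range to human plasma; APTT, PT and TT clotting times measured on a coagulation instrument, bovine thrombin used for plasma assays. Concentration doubling clotting time estimated by linear extrapolation.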

human plasma [4] = test: Human plasma anticoagulation, activated partial thromboplastin time (APTT); assay type: biochemical
In short: as §2

human plasma [5] = test: Human plasma anticoagulation, prothrombin time (PT); assay type: biochemical
In short: as §2

Row | Compound | Kass Human Thrombin (human thrombin) [L/mol × 10^6] | Kass Trypsin (Bovine trypsin) [L/mol × 10^6] | Kass Plasmin (Human plasmin) [L/mol × 10^6] | Kass t-PA [1] [L/mol × 10^6] | Percent Relative Activity (Index of Bioavailability) [2] [%] | Kass Xa (factor Xa) [L/mol × 10^6] | 2 × Clotting time TT (human plasma [3]) [ng/mL] | 2 × Clotting time APTT (human plasma [4]) | 2 × Clotting time PT (human plasma [5]) | inhibition at 13 µg/mL ([1]; at 13 μg/mL, read-out: inhib. of t-PA) [%]
1 | N-methyl-D-Phg-Pro-Arg-H.H2 SO4 [79 (Step A)] | 236 | 87 | 1.3 | 0.01 | 18 | – | – | – | – | –
2 | Cl.Cn1c(C(=O)N[C@H](Cc2ccccc2)C(=O)N2CCC[C@H]2C(=O)N[C@H](C=O)CCCNC(=N)N)cc2ccccc21 [Example 45, N-(1-methylindolyl-2-carbonyl)-D-phenylalanyl-L-Prolinyl-L-Arginine Aldehyde Hydrochloride] | 850 | 120 | 7.9 | 31 | 2 | 0.51 | 43 | 440 ng/mL | 870 ng/mL | –
3 | Cl.N=C(N)NCCC[C@@H](C=O)NC(=O)[C@@H]1CCCN1C(=O)[C@@H](Cc1ccccc1)NCC1CCCCC1 [Example 74, N-(cyclohexylmethyl)-D-phenylalanyl-L-Prolinyl-L-Arginine Aldehyde Hydrochloride] | 480 | 69 | 0.49 | 0.046 | 1 | 0.11 | 16 | 860 ng/mL | 1,200 ng/mL | –
4 | Cl.N=C(N)NCCC[C@@H](C=O)NC(=O)[C@@H]1CCCN1C(=O)[C@@H](Cc1ccccc1)NS(=O)(=O)c1ccccc1 [Example 57, N-(phenylsulfonyl)-D-phenylalanyl-L-Prolinyl-L-Arginine Aldehyde Hydrochloride] | 270 | 180 | 19 | 2.3 | 3 | 3.6 | 14 | 450 ng/mL | 930 ng/mL | –
5 | CC(C)S(=O)(=O)N[C@H](Cc1ccccc1)C(=O)N1CCC[C@H]1C(=O)N[C@H](C=O)CCCNC(=N)N.Cl [Example 55, N-(isopropylsulfonyl)-D-phenylalanyl-L-Prolinyl-L-Arginine Aldehyde Hydrochloride] | 460 | 260 | 25 | 3.5 | 10 | 6.0 | 13 | 270 ng/mL | 510 ng/mL | –
6 | CN(C)S(=O)(=O)N[C@H](Cc1ccccc1)C(=O)N1CCC[C@H]1C(=O)N[C@H](C=O)CCCNC(=N)N.Cl [Example 56, N-(dimethylaminosulfonyl)-D-phenylalanyl-L-Prolinyl-L-Arginine Aldehyde Hydrochloride] | 300 | 160 | 21 | – | 26 | 3.9 | 46 | 360 ng/mL | 480 ng/mL | 100
7 | CCOC(=O)N[C@H](Cc1ccccc1)C(=O)N1CCC[C@H]1C(=O)N[C@H](C=O)CCCNC(=N)N.Cl [Example 77, N-(ethoxycarbonyl)-D-phenylalanyl-L-Prolinyl-L-Arginine Aldehyde Hydrochloride] | 170 | 240 | 16 | 2.5 | 14 | 2.3 | 22 | 390 ng/mL | 2,000 ng/mL | –
8 | Cl.N=C(N)NCCC[C@@H](C=O)NC(=O)[C@@H]1CCCN1C(=O)[C@@H](Cc1ccccc1)NC(=O)c1cccnc1 [Example 47, N-(nicotinoyl)-D-phenylalanyl-L-Prolinyl-L-Arginine Aldehyde Hydrochloride] | 58 | 12 | 0.41 | 0.17 | 3 | 0.080 | 47 | 1,300 ng/mL | 1,700 ng/mL | –
9 | CN[C@@H](C(=O)N1CCC[C@H]1C(=O)N[C@@H](CCCNC(=N)N)C(O)S(=O)(=O)[O-])c1ccccc1.O=S(=O)(O)O.[Na+] (stereo partly drawn) [Example 79, N-methyl-D-phenylglycinyl-L-prolinyl-NH-CH[(CH2)3 NH-C(NH)-NH2]-C(OH)SO3 Na.H2 SO4] | 239 | 84 | 1.8 | 0.01 | 21 | – | – | – | – | –
10 | CCS(=O)(=O)N[C@H](Cc1ccccc1)C(=O)N1CCC[C@H]1C(=O)N[C@H](C=O)CCCNC(=N)N.Cl [Example 52, N-(ethylsulfonyl)-D-phenylalanyl-L-Prolinyl-L-Arginine Aldehyde Hydrochloride] | 450 | 260 | 31 | 2.9 | 31 | 2.6 | 9 | 260 ng/mL | 660 ng/mL | –
11 | Cl.Cl.N=C(N)NCCC[C@@H](C=O)NC(=O)[C@@H]1CCCN1C(=O)C1NCCS1 (stereo partly drawn) [Example 10, D,L-Thiazolidinyl-2-carbonyl-L-prolinyl-L-arginine aldehyde dihydrochloride] | 27 | – | – | – | 5 | – | – | – | – | –
12 | CNC(CC(=O)N1CCC[C@H]1C(=O)N[C@H](C=O)CCCNC(=N)N)C1CCCCC1.CNC(CC(=O)N1CCC[C@H]1C(=O)N[C@H](C=O)CCCNC(=N)N)C1CCCCC1.Cl.Cl.Cl.Cl.O (stereo partly drawn) [Example 16, N-methyl-3-amino-3-cyclohexyl propionyl-L-Pro-L-Arg aldehyde dihydrochloride hemihydrate] | 85 | – | – | – | 19 | – | – | – | – | –
13 | N=C(N)NCCC[C@H](NC(=O)[C@@H]1CCCN1C(=O)C1CC2CCCCC2CN1)C(O)S(=O)(=O)[O-].O=S(=O)(O)O.[Na+] (stereo partly drawn) [Example 80, D-1,2,3,4,4a,6,7,8,8a-Perhydroisoquinolin-3-yl carbonyl-L-prolinyl-L-arginine aldehyde bisulfite sulfate] | 62 | 137 | 2.7 | 0.01 | 57 | – | – | – | – | –
